Experimental data from US11167007B2, “FOXM1 modulators and uses thereof” (City of Hope, priority 2016, dated 2021).

Test system: FOXM1
Experiment: Immunohistochemistry of FOXM1 in spinal cord
Assay type: in vivo, rat
Details: rats, FIG. 5C
Experimental: Animals and Drugs. This study was carried out in strict accordance with the recommendations in the Guide for the Care and Use of Laboratory Animals of the National Institutes of Health. All experiments were performed under the IUCAC approval of City of Hope. Animals were purchased from Jackson Laboratory (Bar Harbor, Main). For the pilot pharmacokinetic experiment, nine male Sprague Dawley rats (n=3) were administered 1, 10, or 100 mg/kg intraperitoneal injections thrice per week for four weeks. One hour following the final dose, blood and spinal fluid were collected and analyzed by mass spectrometry. […] Following a treatment period of 7 days, rats were euthanized and organs harvested, weighed and processed for quantitative RT-PCR.
Immunohistochemistry. […] A veterinary pathologist, blinded to the identity of the treatment groups, scored the spinal cord sections based on the intensity of FOXM1 expression, which was typically uniform across the entirety of a section, creating a scale ranging from 0-2 in both white matter and grey matter. […] As a secondary quantification method, Image J was used to determine pixel density of FOXM1 staining. […]
Intact and castrate cohorts were included as controls. […] As a secondary quantification method, Image J was used to determine pixel density of FOXM1 staining. […]

SMILES: C=C(NC(=O)C(=C)NC(=O)c1csc(C2=N[C@@H]3c4csc(n4)[C@H]4NC(=O)c5csc(n5)[C@H]([C@](C)(O)[C@@H](C)O)NC(=O)[C@H]5CSC(=N5)/C(=C/C)NC(=O)[C@H]([C@@H](C)O)NC(=O)c5csc(n5)[C@]3(CC2)NC(=O)[C@H](C)NC(=O)C(=C)NC(=O)[C@H](C)NC(=O)[C@H]([C@@H](C)CC)N[C@@H]2C=Cc3c([C@H](C)O)cc(nc3[C@H]2O)C(=O)O[C@@H]4C)n1)C(N)=O [thiostrepton]
- expression of FOXM1 in the spinal cord, scored by veterinary pathologist (100 mg/kg per day, four weeks, IP osmotic pumps): significantly reduced
- FOXM1 staining intensity, Image J pixel density (spinal cord, relative to untreated): lower intensity
